Patent publication US11026944B2, “Compositions and methods for treating insomnia” (Eisai R&D Management Co., Ltd., priority 2014, dated 2021)

Test system: subjects with insomnia
Experiment: 201 Study: polysomnography (SE, LPS, WASO) dose-response
Type: in vivo, human
Procedure: This was a multi-center, randomized, double-blind, adaptive design, dose-response study in subjects with insomnia. Subjects were randomized to 1 of 6 doses of compound A (1 mg, 2.5 mg, 5 mg, 10 mg, 15 mg and 25 mg) or placebo.
The study had 2 phases: Prerandomization and Randomization. The Prerandomization Phase lasted up to 21 days and consisted of a Screening Period (Days-21 to -2) and a Baseline Period (Day-1). After the Baseline Period, all eligible subjects were randomized in a double-blind manner to receive compound A or placebo for 15 nights during the Treatment Period (Days 1 to 15). All subjects then received placebo in a single-blind manner, for 2 nights (Days 16 to 17) during the Rebound Insomnia Assessment Period (Days 16 to 18). […] All subjects came to the clinic for screening procedures. During the Screening Period, subjects completed the Sleep Diary each day. Polysomnographic sleep was measured during the Screening Period on 2 consecutive nights between Day-9 and Day-3. The 8-hour polysomnograms (PSGs) were started at the median habitual bedtime calculated from responses on the Sleep Diary, which were completed for 7 days before the first PSG night. These recordings served as both eligibility screening PSGs and as Baseline PSGs. Subjects could leave the clinic between the screening/Baseline PSG nights.
All subjects returned to the clinic on Day-1 for Baseline Period procedures. They remained in the clinic until Day 3. Morning assessments on Day 1 provided the Baseline values for the KSS, the Digit Symbol Substitution Test (DSST), and the Reaction Time Index (RTI). Assessments at 6 hours after waketime provided the Baseline values for the Waking Function Battery (WFB), and the Profile of Mood States-Brief (POMS-B). Subjects were then randomized to receive 1 of 6 doses of compound A or placebo for the next 15 days. Study drugs were tablets containing compound A-matched placebo or compound A of 1 mg, 2.5 mg, 5 mg, or 10 mg and to be ingested 30 minutes before the median habitual bedtime calculated from their Sleep Diary responses during the Screening Period. An 8-hour PSG, starting at the same bedtime as used for the screening and Baseline PSG nights, was recorded on the first 2 treatment nights (Days 1 and 2). The Sleep Diary continued to be completed each day in the clinic, and assessments of insomnia severity (ISI), next-day residual effects (KSS, DSST, and RTI) were conducted while subjects were in the clinic. On specified study days, plasma concentrations of compound A were assessed while subjects were in the clinic in the morning after awakening and at trough just before dosing.
Subjects continued to take compound A or placebo 30 minutes before their anticipated, self-selected bedtime and continued to complete the Sleep Diary each day while at home during the Treatment Period. On Day 14 of the Treatment Period, subjects returned to the clinic. They remained in the clinic for 4 nights and the intervening days until Day 18. Eight-hour PSGs were recorded each night in the clinic, to start at the median habitual bedtime calculated from responses on the Sleep Diary completed on Days 3 to 13. The Sleep Diary continued to be completed each day in the clinic, and the ISI, KSS, DSST, RTI, were administered at prespecified time points during the daytime hours.
In Table 5, “Baseline” was defined as the mean of the screening PSG 1 and 2, within −9 to −3 days of randomization. “LS Means Diff” refers to the differences between LS Means of Placebo and each compound A dose, “95% CI” means to 95% CI of LS Means Diff. “p-value” was analyzed using analysis of covariance (ANCOVA) with baseline as a covariate.
In Table 7, “Baseline” was defined as the mean of the screening PSG 1 and 2, within −9 to −3 days of randomization. “p-value” was analyzed using analysis of covariance (ANCOVA) with baseline as a covariate.
In Table 8, “Baseline” was defined as the mean of the screening PSG 1 and 2, within −9 to −3 days of randomization. […]

[1] = Days 14 & 15 minus Days 1 & 2, 1 mg nightly
[2] = Days 14 & 15 minus Days 1 & 2, 2.5 mg nightly
[3] = Days 14 & 15 minus Days 1 & 2, 5 mg nightly
[4] = Days 14 & 15 minus Days 1 & 2, 10 mg nightly
[5] = Days 14 & 15 minus Days 1 & 2, 15 mg nightly
[6] = Days 14 & 15 minus Days 1 & 2, 25 mg nightly

With `Cc1ncc(OC[C@@]2(c3cccc(F)c3)C[C@H]2C(=O)Nc2ccc(F)cn2)c(C)n1` [Compound A, (1R,2 S)-2-(((2,4-dimethylpyrimidin-5-yl)oxy)methyl)-2-(3-fluorophenyl)-N-(5-fluoropyridin-2-yl) cyclopropanecarboxamide] the “Change from Baseline in WASO, Mean of Days 1 & 2: LS Means Diff vs placebo” value (15 mg nightly) was -29.3 min, the “Change from Baseline in WASO, Mean of Days 1 & 2: Mean” value (15 mg nightly) was -66.1 min and the “Change from Baseline in WASO, Mean of Days 14 & 15: LS Means Diff vs placebo” value (15 mg nightly) was -20.8 min. The “Change from Baseline in WASO, Mean of Days 14 & 15: Mean” value (15 mg nightly) was -53.4 min, the “Change from Baseline in LPS, Mean of Days 1 & 2: Geometric Mean Ratio (compound A/placebo)” value (25 mg nightly) was 0.39 and the “Change from Baseline in LPS, Mean of Days 14 & 15: Geometric Mean Ratio (compound A /placebo)” value (25 mg nightly) was 0.34. For the same compound, the “Change from Baseline in SE, Mean of Days 1 & 2: LS Means Diff vs placebo” value (25 mg nightly) was 10.13%, the “Change from Baseline in SE, Mean of Days 1 & 2: Mean” value (25 mg nightly) was 22.7% and the “Change from Baseline in SE, Mean of Days 14 & 15: LS Means Diff vs placebo” value (25 mg nightly) was 8.87%. The “Change from Baseline in SE, Mean of Days 14 & 15: Mean” value (25 mg nightly) was 21.4%, the “Change from Baseline in WASO, Mean of Days 1 & 2: LS Means Diff vs placebo” value (25 mg nightly) was -25.8 min and the “Change from Baseline in WASO, Mean of Days 1 & 2: Mean” value (25 mg nightly) was -62.3 min. The “Change from Baseline in WASO, Mean of Days 14 & 15: LS Means Diff vs placebo” value (25 mg nightly) was -21.5 min, the “Change from Baseline in WASO, Mean of Days 14 & 15: Mean” value (25 mg nightly) was -53.9 min and the “SE (B)-(A) Potential Habituation Effect: LS Means Diff vs placebo” value [1] was −3.3%. For the same compound, the “SE (B)-(A) Potential Habituation Effect: Mean” value [1] was −4.0%, the “WASO (B)-(A) Potential Habituation Effect: LS Means Diff vs placebo” value [1] was 13.2 min and the “WASO (B)-(A) Potential Habituation Effect: Mean” value [1] was 18.0 min. The “SE (B)-(A) Potential Habituation Effect: LS Means Diff vs placebo” value [2] was 0.3%, the “SE (B)-(A) Potential Habituation Effect: Mean” value [2] was −0.5% and the “WASO (B)-(A) Potential Habituation Effect: LS Means Diff vs placebo” value [2] was -2.9 min. For the same compound, the “WASO (B)-(A) Potential Habituation Effect: Mean” value [2] was 2.2 min, the “SE (B)-(A) Potential Habituation Effect: LS Means Diff vs placebo” value [3] was 1.0% and the “SE (B)-(A) Potential Habituation Effect: Mean” value [3] was 0.1%. The “WASO (B)-(A) Potential Habituation Effect: LS Means Diff vs placebo” value [3] was -2.9 min, the “WASO (B)-(A) Potential Habituation Effect: Mean” value [3] was 2.7 min and the “SE (B)-(A) Potential Habituation Effect: LS Means Diff vs placebo” value [4] was 0.3%. The “SE (B)-(A) Potential Habituation Effect: Mean” value [4] was −0.7%, the “WASO (B)-(A) Potential Habituation Effect: LS Means Diff vs placebo” value [4] was 2.8 min and the “WASO (B)-(A) Potential Habituation Effect: Mean” value [4] was 9.3 min. For the same compound, the “SE (B)-(A) Potential Habituation Effect: LS Means Diff vs placebo” value [5] was −1.3%, the “SE (B)-(A) Potential Habituation Effect: Mean” value [5] was −2.3% and the “WASO (B)-(A) Potential Habituation Effect: LS Means Diff vs placebo” value [5] was 5.2 min. For the same compound, the “WASO (B)-(A) Potential Habituation Effect: Mean” value [5] was 11.8 min, the “SE (B)-(A) Potential Habituation Effect: LS Means Diff vs placebo” value [6] was −1.1% and the “SE (B)-(A) Potential Habituation Effect: Mean” value [6] was −2.1%. The “WASO (B)-(A) Potential Habituation Effect: LS Means Diff vs placebo” value [6] was 2.7 min, the “WASO (B)-(A) Potential Habituation Effect: Mean” value [6] was 9.3 min and the “LPS (B)-(A) Potential Habituation Effect: Geometric Mean Ratio (compound A/placebo)” value (Days 14 & 15 vs Days 1 & 2, 1 mg nightly) was 0.93. For the same compound, the “LPS (B)-(A) Potential Habituation Effect: Geometric Mean Ratio (compound A/placebo)” value (Days 14 & 15 vs Days 1 & 2, 2.5 mg nightly) was 0.90, the “LPS (B)-(A) Potential Habituation Effect: Geometric Mean Ratio (compound A/placebo)” value (Days 14 & 15 vs Days 1 & 2, 5 mg nightly) was 0.77 and the “LPS (B)-(A) Potential Habituation Effect: Geometric Mean Ratio (compound A/placebo)” value (Days 14 & 15 vs Days 1 & 2, 10 mg nightly) was 0.60. For the same compound, the “LPS (B)-(A) Potential Habituation Effect: Geometric Mean Ratio (compound A/placebo)” value (Days 14 & 15 vs Days 1 & 2, 15 mg nightly) was 0.76, the “LPS (B)-(A) Potential Habituation Effect: Geometric Mean Ratio (compound A/placebo)” value (Days 14 & 15 vs Days 1 & 2, 25 mg nightly) was 0.89 and the “WASO, Days 1/2 compared to Days 14/15” value (all doses) was “no statistical evidence of an increase or decrease in WASO”. For the same compound, the “LPS geometric mean ratios vs placebo, significance” value (all other doses (2.5-25 mg), Mean of Days 1/2) was “evidence of statistical significance”, the “WASO change from baseline vs placebo, significance” value (mean of Days 1/2, doses of 10 mg and above) was “statistically significant against placebo” and the “WASO change from baseline vs placebo, significance” value (mean of Days 14/15, doses 15 mg and above) was “statistically significant against placebo”.
